The values below are quoted from earlier work in patent US20060147527A1, “Controlled release preparations comprising tramadol and topiramate” (CILAG AG, priority 2002, published 2006).

The data set relates to Chung model of post-nerve constriction injury. To be noted: each drug alone.

For the compound `CC1(C)O[C@@H]2[C@@H](CO[C@@]3(COS(N)(=O)=O)OC(C)(C)O[C@@H]23)O1` [topiramate, 2,3:4,5-bis-O-(1-methylethylidene)-β-D-fructopyranose sulfamate], the “maximal effect reached as the dose is escalated” value is 100 % MPE.
Regarding `COc1cccc(C2(O)CCCCC2CN(C)C)c1` (single isomer, unassigned) [tramadol, (1R,2R or 1S,2S)-2-[(dimethylamino)methyl]-1-(3-methoxyphenyl)-cyclohexanol], the “maximal effect reached as the dose is escalated” value is on record as 100 % MPE.
